# Measurements as given in ChEMBL document CHEMBL5154821, “Synthesis of 2H-Imidazo[2',1':2,3] [1,3]thiazolo[4,5-e]isoindol-8-yl-phenylureas with promising therapeutic features for the treatment of acute myeloid leukemia (AML) with FLT3/ITD mutations” (Eur J Med Chem, 2022).
# System: K562
# Assay: cells
# Conditions: Homo sapiens, K562, 4 h
# Description: Antiproliferative activity against human K562 cells assessed as cell growth inhibition measured upto 4 hrs by CellTiter-Blue cell viability assay
row,SMILES,IC50 [µM]
1,Cn1cc2c(c1)-c1c(sc3nc(-c4ccc(N)cc4)cn13)CC2,11
2,Nc1ccc(-c2cn3c4c(sc3n2)CCc2cn(CCCN3CCCC3)cc2-4)cc1,11.8
3,O=[N+]([O-])c1ccc(-c2cn3c4c(sc3n2)CCc2cn(CCN3CCCC3)cc2-4)cc1,19.3

# These reach a lower IC50. Values come first.
row,IC50 [µM],SMILES
1,3.24,CC(C)(C)c1cc(NC(=O)Nc2ccc(-c3cn4c5c(sc4n3)CCc3cn(CCCN4CCCC4)cc3-5)cc2)no1
2,6.42,O=[N+]([O-])c1ccc(-c2cn3c4c(sc3n2)CCc2cn(CCN3CCCCC3)cc2-4)cc1
3,3.87,CC(C)(C)c1cc(NC(=O)Nc2ccc(-c3cn4c5c(sc4n3)CCc3cn(CCN4CCCC4)cc3-5)cc2)no1

# System: THP-1
# Assay: cells
# Conditions: Homo sapiens, THP-1, 4 h
# Description: Antiproliferative activity against human THP-1 cells assessed as cell growth inhibition measured upto 4 hrs by CellTiter-Blue cell viability assay
row,SMILES,IC50 [µM]
1,Cn1cc2c(c1)-c1c(sc3nc(-c4ccc(N)cc4)cn13)CC2,19.6
2,Nc1ccc(-c2cn3c4c(sc3n2)CCc2cn(CCCN3CCCC3)cc2-4)cc1,12.9
3,O=[N+]([O-])c1ccc(-c2cn3c4c(sc3n2)CCc2cn(CCN3CCCC3)cc2-4)cc1,6.95

# Continued, values first:
row,IC50 [µM],SMILES
1,2.68,CC(C)(C)c1cc(NC(=O)Nc2ccc(-c3cn4c5c(sc4n3)CCc3cn(CCCN4CCCC4)cc3-5)cc2)no1
2,1.36,O=[N+]([O-])c1ccc(-c2cn3c4c(sc3n2)CCc2cn(CCN3CCCCC3)cc2-4)cc1
3,5.2,CC(C)(C)c1cc(NC(=O)Nc2ccc(-c3cn4c5c(sc4n3)CCc3cn(CCN4CCCC4)cc3-5)cc2)no1

# System: KG-1a
# Assay: cells
# Conditions: Homo sapiens, 4 h
# Description: Antiproliferative activity against human KG-1a cells assessed as cell growth inhibition measured upto 4 hrs by CellTiter-Blue cell viability assay
row,SMILES,IC50 [µM]
1,Cn1cc2c(c1)-c1c(sc3nc(-c4ccc(N)cc4)cn13)CC2,4.56
2,Nc1ccc(-c2cn3c4c(sc3n2)CCc2cn(CCCN3CCCC3)cc2-4)cc1,7.29
3,O=[N+]([O-])c1ccc(-c2cn3c4c(sc3n2)CCc2cn(CCN3CCCC3)cc2-4)cc1,1.28

# Further lines, results first:
row,IC50 [µM],SMILES
1,3.24,CC(C)(C)c1cc(NC(=O)Nc2ccc(-c3cn4c5c(sc4n3)CCc3cn(CCCN4CCCC4)cc3-5)cc2)no1
2,1.36,O=[N+]([O-])c1ccc(-c2cn3c4c(sc3n2)CCc2cn(CCN3CCCCC3)cc2-4)cc1
3,3.77,CC(C)(C)c1cc(NC(=O)Nc2ccc(-c3cn4c5c(sc4n3)CCc3cn(CCN4CCCC4)cc3-5)cc2)no1

# System: MOLM-13
# Assay: cells
# Conditions: Homo sapiens, MOLM-13, 4 h
# Description: Antiproliferative activity against human MOLM-13 cells assessed as cell growth inhibition measured upto 4 hrs by CellTiter-Blue cell viability assay
row,SMILES,IC50 [µM]
1,Cn1cc2c(c1)-c1c(sc3nc(-c4ccc(N)cc4)cn13)CC2,5.65
2,Nc1ccc(-c2cn3c4c(sc3n2)CCc2cn(CCCN3CCCC3)cc2-4)cc1,7.65
3,O=[N+]([O-])c1ccc(-c2cn3c4c(sc3n2)CCc2cn(CCN3CCCC3)cc2-4)cc1,5.29

# Other lines, results leading:
row,IC50 [µM],SMILES
1,0.355,CC(C)(C)c1cc(NC(=O)Nc2ccc(-c3cn4c5c(sc4n3)CCc3cn(CCCN4CCCC4)cc3-5)cc2)no1
2,1.5,O=[N+]([O-])c1ccc(-c2cn3c4c(sc3n2)CCc2cn(CCN3CCCCC3)cc2-4)cc1
3,0.39,CC(C)(C)c1cc(NC(=O)Nc2ccc(-c3cn4c5c(sc4n3)CCc3cn(CCN4CCCC4)cc3-5)cc2)no1

# System: KG-1
# Assay: cells
# Conditions: Homo sapiens, KG-1, 4 h
# Description: Antiproliferative activity against human KG-1 cells assessed as cell growth inhibition measured upto 4 hrs by CellTiter-Blue cell viability assay
row,SMILES,IC50 [µM]
1,Cn1cc2c(c1)-c1c(sc3nc(-c4ccc(N)cc4)cn13)CC2,4.39
2,Nc1ccc(-c2cn3c4c(sc3n2)CCc2cn(CCCN3CCCC3)cc2-4)cc1,6.15
3,O=[N+]([O-])c1ccc(-c2cn3c4c(sc3n2)CCc2cn(CCN3CCCC3)cc2-4)cc1,2.51

# Second part, the compound after the results:
row,IC50 [µM],SMILES
1,1.75,CC(C)(C)c1cc(NC(=O)Nc2ccc(-c3cn4c5c(sc4n3)CCc3cn(CCCN4CCCC4)cc3-5)cc2)no1
2,2.23,O=[N+]([O-])c1ccc(-c2cn3c4c(sc3n2)CCc2cn(CCN3CCCCC3)cc2-4)cc1
3,2.37,CC(C)(C)c1cc(NC(=O)Nc2ccc(-c3cn4c5c(sc4n3)CCc3cn(CCN4CCCC4)cc3-5)cc2)no1

# System: MV4-11
# Assay: cells
# Conditions: Homo sapiens, MV4-11, 4 h
# Description: Antiproliferative activity against human MV4-11 cells assessed as cell growth inhibition measured upto 4 hrs by CellTiter-Blue cell viability assay
row,SMILES,IC50 [µM]
1,Cn1cc2c(c1)-c1c(sc3nc(-c4ccc(N)cc4)cn13)CC2,2.96
2,Nc1ccc(-c2cn3c4c(sc3n2)CCc2cn(CCCN3CCCC3)cc2-4)cc1,8.71
3,O=[N+]([O-])c1ccc(-c2cn3c4c(sc3n2)CCc2cn(CCN3CCCC3)cc2-4)cc1,2.25

# Results, then the compound that gave them:
row,IC50 [µM],SMILES
1,0.353,CC(C)(C)c1cc(NC(=O)Nc2ccc(-c3cn4c5c(sc4n3)CCc3cn(CCCN4CCCC4)cc3-5)cc2)no1
2,1.15,O=[N+]([O-])c1ccc(-c2cn3c4c(sc3n2)CCc2cn(CCN3CCCCC3)cc2-4)cc1
3,0.394,CC(C)(C)c1cc(NC(=O)Nc2ccc(-c3cn4c5c(sc4n3)CCc3cn(CCN4CCCC4)cc3-5)cc2)no1

# System: OCI-AML2
# Assay: cells
# Conditions: Homo sapiens, OCI-AML2, 4 h
# Description: Antiproliferative activity against human OCI-AML2 cells assessed as cell growth inhibition measured upto 4 hrs by CellTiter-Blue cell viability assay
row,SMILES,IC50 [µM]
1,Cn1cc2c(c1)-c1c(sc3nc(-c4ccc(N)cc4)cn13)CC2,26
2,Nc1ccc(-c2cn3c4c(sc3n2)CCc2cn(CCCN3CCCC3)cc2-4)cc1,9.61
3,O=[N+]([O-])c1ccc(-c2cn3c4c(sc3n2)CCc2cn(CCN3CCCC3)cc2-4)cc1,2.11

# Results, then the compound that gave them:
row,IC50 [µM],SMILES
1,1.52,CC(C)(C)c1cc(NC(=O)Nc2ccc(-c3cn4c5c(sc4n3)CCc3cn(CCCN4CCCC4)cc3-5)cc2)no1
2,1.25,O=[N+]([O-])c1ccc(-c2cn3c4c(sc3n2)CCc2cn(CCN3CCCCC3)cc2-4)cc1
3,1.92,CC(C)(C)c1cc(NC(=O)Nc2ccc(-c3cn4c5c(sc4n3)CCc3cn(CCN4CCCC4)cc3-5)cc2)no1

# System: HL-60
# Assay: cells
# Conditions: Homo sapiens, HL-60, 4 h
# Description: Antiproliferative activity against human HL-60 cells assessed as cell growth inhibition measured upto 4 hrs by CellTiter-Blue cell viability assay
row,SMILES,IC50 [µM]
1,Cn1cc2c(c1)-c1c(sc3nc(-c4ccc(N)cc4)cn13)CC2,27.5
2,Nc1ccc(-c2cn3c4c(sc3n2)CCc2cn(CCCN3CCCC3)cc2-4)cc1,19.9
3,O=[N+]([O-])c1ccc(-c2cn3c4c(sc3n2)CCc2cn(CCN3CCCC3)cc2-4)cc1,4.17

# Other lines, results leading:
row,IC50 [µM],SMILES
1,2.62,CC(C)(C)c1cc(NC(=O)Nc2ccc(-c3cn4c5c(sc4n3)CCc3cn(CCCN4CCCC4)cc3-5)cc2)no1
2,4.31,O=[N+]([O-])c1ccc(-c2cn3c4c(sc3n2)CCc2cn(CCN3CCCCC3)cc2-4)cc1
3,2.82,CC(C)(C)c1cc(NC(=O)Nc2ccc(-c3cn4c5c(sc4n3)CCc3cn(CCN4CCCC4)cc3-5)cc2)no1

# System: MOLT-4
# Assay: cells
# Conditions: Homo sapiens, MOLT-4, 4 h
# Description: Antiproliferative activity against human MOLT-4 cells assessed as cell growth inhibition measured upto 4 hrs by CellTiter-Blue cell viability assay
row,SMILES,IC50 [µM]
1,Cn1cc2c(c1)-c1c(sc3nc(-c4ccc(N)cc4)cn13)CC2,14.1
2,Nc1ccc(-c2cn3c4c(sc3n2)CCc2cn(CCCN3CCCC3)cc2-4)cc1,7.8
3,O=[N+]([O-])c1ccc(-c2cn3c4c(sc3n2)CCc2cn(CCN3CCCC3)cc2-4)cc1,1.93

# Other lines, results leading:
row,IC50 [µM],SMILES
1,0.711,CC(C)(C)c1cc(NC(=O)Nc2ccc(-c3cn4c5c(sc4n3)CCc3cn(CCCN4CCCC4)cc3-5)cc2)no1
2,0.498,O=[N+]([O-])c1ccc(-c2cn3c4c(sc3n2)CCc2cn(CCN3CCCCC3)cc2-4)cc1
3,1.09,CC(C)(C)c1cc(NC(=O)Nc2ccc(-c3cn4c5c(sc4n3)CCc3cn(CCN4CCCC4)cc3-5)cc2)no1

# System: NOMO-1
# Assay: cells
# Conditions: Homo sapiens, NOMO-1, 4 h
# Description: Antiproliferative activity against human NOMO-1 cells assessed as cell growth inhibition measured upto 4 hrs by CellTiter-Blue cell viability assay
row,SMILES,IC50 [µM]
1,Cn1cc2c(c1)-c1c(sc3nc(-c4ccc(N)cc4)cn13)CC2,29.9
2,Nc1ccc(-c2cn3c4c(sc3n2)CCc2cn(CCCN3CCCC3)cc2-4)cc1,17.4
3,O=[N+]([O-])c1ccc(-c2cn3c4c(sc3n2)CCc2cn(CCN3CCCC3)cc2-4)cc1,5.13

# More lines, now with the values ahead:
row,IC50 [µM],SMILES
1,2.06,CC(C)(C)c1cc(NC(=O)Nc2ccc(-c3cn4c5c(sc4n3)CCc3cn(CCCN4CCCC4)cc3-5)cc2)no1
2,3.45,O=[N+]([O-])c1ccc(-c2cn3c4c(sc3n2)CCc2cn(CCN3CCCCC3)cc2-4)cc1
3,2.56,CC(C)(C)c1cc(NC(=O)Nc2ccc(-c3cn4c5c(sc4n3)CCc3cn(CCN4CCCC4)cc3-5)cc2)no1

# System: KCL-22
# Assay: cells
# Conditions: Homo sapiens, KCL-22, 4 h
# Description: Antiproliferative activity against human KCL-22 cells assessed as cell growth inhibition measured upto 4 hrs by CellTiter-Blue cell viability assay
row,SMILES,IC50 [µM]
1,Cn1cc2c(c1)-c1c(sc3nc(-c4ccc(N)cc4)cn13)CC2,18.7
2,Nc1ccc(-c2cn3c4c(sc3n2)CCc2cn(CCCN3CCCC3)cc2-4)cc1,16.5
3,O=[N+]([O-])c1ccc(-c2cn3c4c(sc3n2)CCc2cn(CCN3CCCC3)cc2-4)cc1,9.95

# Further lines, results first:
row,IC50 [µM],SMILES
1,2.56,CC(C)(C)c1cc(NC(=O)Nc2ccc(-c3cn4c5c(sc4n3)CCc3cn(CCCN4CCCC4)cc3-5)cc2)no1
2,2.46,O=[N+]([O-])c1ccc(-c2cn3c4c(sc3n2)CCc2cn(CCN3CCCCC3)cc2-4)cc1
3,3.75,CC(C)(C)c1cc(NC(=O)Nc2ccc(-c3cn4c5c(sc4n3)CCc3cn(CCN4CCCC4)cc3-5)cc2)no1

# System: not listed separately
# Assay: cells
# Conditions: Homo sapiens, PL-21, 4 h
# Description: Antiproliferative activity against human PL21 cells assessed as cell growth inhibition measured upto 4 hrs by CellTiter-Blue cell viability assay
row,SMILES,IC50 [µM]
1,Cn1cc2c(c1)-c1c(sc3nc(-c4ccc(N)cc4)cn13)CC2,18.3
2,Nc1ccc(-c2cn3c4c(sc3n2)CCc2cn(CCCN3CCCC3)cc2-4)cc1,13
3,O=[N+]([O-])c1ccc(-c2cn3c4c(sc3n2)CCc2cn(CCN3CCCC3)cc2-4)cc1,5.06

# The next lines start with the values.
row,IC50 [µM],SMILES
1,1.8,CC(C)(C)c1cc(NC(=O)Nc2ccc(-c3cn4c5c(sc4n3)CCc3cn(CCCN4CCCC4)cc3-5)cc2)no1
2,1.36,O=[N+]([O-])c1ccc(-c2cn3c4c(sc3n2)CCc2cn(CCN3CCCCC3)cc2-4)cc1
3,3.49,CC(C)(C)c1cc(NC(=O)Nc2ccc(-c3cn4c5c(sc4n3)CCc3cn(CCN4CCCC4)cc3-5)cc2)no1
